System: CCL64 mink lung epithelial cells
Assay: CCL64 TGF-β bioassay (growth, crystal violet)
Format: cell-based
Details: human TGF-β1 and TGF-β2
Protocol: FIG. 1. Prevention of the growth inhibitory effects of recombinant and glioma-derived TGF-b1 and TGF-b2 by a TGF-β inhibitor (Compound No. 79 in Table 2). A. CCL64 cells were exposed to human recombinant TGF-b1 (filled symbols) or TGF-b2 (open symbols) (10 ng/ml) in the absence or presence of increasing concentrations of Comopund No. 79 for 72 h. B. CCL64 cells were maintained in serum-free medium containing heat-activated glioma cell SN (1:1) in the absence or presence of Compound No. 79 for 72 h. Growth was assessed by crystal violet assay (mean and SD, n=3).
The levels of bioactive TGF-β were determined using the CCL64 bioassay. Briefly, […] CCL64 cells were adhered to 96 well plates for 24 h, full medium was replaced by serum-free medium, and the cells were exposed to recombinant TGF-β1/2 or glioma cell culture supernatants diluted in serum-free medium for 72 h. Growth was assessed by crystal violet staining at 72 h. Glioma cell supernatants were harvested from confluent cultures maintained for 48 h in serum-free medium and heat-treated (5 min, 85° C.) to activate latent TGF-β (Leitlein et al., J. Immunol., 166:7238-7243 (2001)).

Substance | EC50 of growth inhibitory effect on CCL64 cells
TGF-β2: "Human recombinant TGF-β1 and TGF-β2 were obtained from Peprotech (London, UK)" | 0.5 ng/mL
TGF-β1: "Human recombinant TGF-β1 and TGF-β2 were obtained from Peprotech (London, UK)" | 0.5 ng/mL

— US20050245508A1, “Treatment of malignant gliomas with TGF-beta inhibitors” (SCIOS, Inc., priority 2003, published 2005)
